Source: ChEMBL document CHEMBL1681651, “A broad spectrum anticancer nucleoside with selective toxicity against human colon cells in vitro” (2011)

Legend:
Assay type in all cases: functional
[1] = test system: HOP-62; experiment: Growth inhibition of human HOP62 cells assessed as cell growth at 1 mM after 48 hrs by SRB assay; details: HOP-62, 48 h, read-out: Activity
[2] = test system: HCT-116; experiment: Growth inhibition of human HCT116 cells assessed as cell growth at 10 uM after 48 hrs by SRB assay; details: HCT-116, 48 h, read-out: Activity
[3] = test system: RXF 393; experiment: Growth inhibition of human RXF393 cells assessed as cell growth at 10 uM after 48 hrs by SRB assay; details: RXF 393, 48 h, read-out: Activity
[4] = test system: HCT-15; experiment: Growth inhibition of human HCT15 cells assessed as cell growth at 1 uM after 48 hrs by SRB assay; details: HCT-15, 48 h, read-out: Activity
[5] = test system: Malme-3M; experiment: Growth inhibition of human MALME-3M cells assessed as cell growth at 1 uM after 48 hrs by SRB assay; details: read-out: Activity
[6] = test system: OVCAR-3; experiment: Growth inhibition of human OVCAR3 cells assessed as cell growth at 10 uM after 48 hrs by SRB assay; details: OVCAR-3, 48 h, read-out: Activity
[7] = test system: SK-MEL-2; experiment: Growth inhibition of human SK-MEL-2 cells assessed as cell growth at 100 uM after 48 hrs by SRB assay; details: SK-MEL-2, 48 h, read-out: Activity
[8] = test system: HCC 2998; experiment: Growth inhibition of human HCC2998 cells after 48 hrs by […] growth inhibition assay; details: HCC 2998, 48 h
[9] = test system: OVCAR-3; experiment: Growth inhibition of human OVCAR3 cells assessed as cell growth at 1 mM after 48 hrs by SRB assay; details: OVCAR-3, 48 h, read-out: Activity
[10] = test system: UACC-257; experiment: Growth inhibition of human UACC257 cells after 48 hrs by […] growth inhibition assay; details: UACC-257, 48 h
[11] = test system: A498; experiment: Growth inhibition of human A498 cells assessed as cell growth at 1 uM after 48 hrs by SRB assay; details: A498, 48 h, read-out: Activity
[12] = test system: CAKI-1; experiment: Growth inhibition of human Caki1 cells assessed as cell growth at 1 mM after 48 hrs by SRB assay; details: CAKI-1, 48 h, read-out: Activity
[13] = test system: A549; experiment: Growth inhibition of human A549 cells assessed as cell growth at 100 uM after 48 hrs by SRB assay; details: A549, 48 h, read-out: Activity
[14] = test system: Malme-3M; experiment: Growth inhibition of human MALME-3M cells after 48 hrs by […] growth inhibition assay
[15] = test system: NCI-H322M; experiment: Growth inhibition of human NCI-H322M cells assessed as cell growth at 1 uM after 48 hrs by SRB assay; details: read-out: Activity
[16] = test system: SK-MEL-2; experiment: Growth inhibition of human SK-MEL-2 cells assessed as cell growth at 1 mM after 48 hrs by SRB assay; details: SK-MEL-2, 48 h, read-out: Activity
[17] = test system: MDA-MB-231; experiment: Growth inhibition of human MDA-MB-231 cells assessed as cell growth at 100 uM after 48 hrs by SRB assay; details: MDA-MB-231, 48 h, read-out: Activity
[18] = test system: SF-268; experiment: Growth inhibition of human SF268 cells assessed as cell growth at 0.1 uM after 48 hrs by SRB assay; details: SF-268, 48 h, read-out: Activity
[19] = test system: EKVX; experiment: Growth inhibition of human EKVX cells assessed as cell growth at 1 mM after 48 hrs by SRB assay; details: read-out: Activity
[20] = test system: MDA-MB-231; experiment: Growth inhibition of human MDA-MB-231 cells after 48 hrs by […] growth inhibition assay; details: MDA-MB-231, 48 h
[21] = test system: OVCAR-5; experiment: Growth inhibition of human OVCAR5 cells assessed as cell growth at 100 uM after 48 hrs by SRB assay; details: OVCAR-5, 48 h, read-out: Activity
[22] = test system: NCI-H23; experiment: Growth inhibition of human NCI-H23 cells assessed as cell growth at 0.1 uM after 48 hrs by SRB assay; details: NCI-H23, 48 h, read-out: Activity
[23] = test system: NCI-H460; experiment: Growth inhibition of human NCI-H460 cells assessed as cell growth at 100 uM after 48 hrs by SRB assay; details: NCI-H460, 48 h, read-out: Activity
[24] = test system: SF-268; experiment: Growth inhibition of human SF268 cells assessed as cell growth at 1 uM after 48 hrs by SRB assay; details: SF-268, 48 h, read-out: Activity
[25] = test system: CAKI-1; experiment: Growth inhibition of human Caki1 cells assessed as cell growth at 10 uM after 48 hrs by SRB assay; details: CAKI-1, 48 h, read-out: Activity
[26] = test system: UACC-62; experiment: Growth inhibition of human UACC62 cells after 48 hrs by […] growth inhibition assay; details: UACC-62, 48 h
[27] = test system: SF-539; experiment: Growth inhibition of human SF539 cells assessed as cell growth at 1 uM after 48 hrs by SRB assay; details: SF-539, 48 h, read-out: Activity
[28] = test system: KM12; experiment: Growth inhibition of human KM12 cells after 48 hrs by […] growth inhibition assay; details: KM12, 48 h
[29] = test system: SK-OV-3; experiment: Growth inhibition of human SKOV3 cells assessed as cell growth at 0.1 uM after 48 hrs by SRB assay; details: SK-OV-3, 48 h, read-out: Activity
[30] = test system: LOX IMVI; experiment: Growth inhibition of human LOXIMVI cells after 48 hrs by […] growth inhibition assay
[31] = test system: SF-539; experiment: Growth inhibition of human SF539 cells assessed as cell growth at 10 uM after 48 hrs by SRB assay; details: SF-539, 48 h, read-out: Activity
[32] = test system: CCRF-CEM; experiment: Growth inhibition of human CCRF-CEM cells assessed as cell growth at 1 mM after 48 hrs by SRB assay; details: read-out: Activity
[33] = test system: MDA-MB-231; experiment: Growth inhibition of human MDA-MB-231 cells assessed as cell growth at 10 uM after 48 hrs by SRB assay; details: MDA-MB-231, 48 h, read-out: Activity
[34] = read-out: LC50 (the source's name)
[35] = read-out: pLC50 (the source's name) (converted)

## CCOC(=O)C[C@H]1[C@@H](O[Si](C)(C)C(C)(C)C)[C@H](n2cnc3c(NC(=O)Nc4ccccc4)ncnc32)O[C@@H]1CNC(=O)NC
[1]
  growth at 1000 µM: -65%
[2]
  growth at 10 µM: 78%
[3]
  growth at 10 µM: 92%
[4]
  growth at 1 µM: 96%
[5]
  growth at 1 µM: 95%
[6]
  growth at 10 µM: 116%
[7]
  growth at 100 µM: 32%
[8]; read-out: GI50
  GI50: > 100 µM
[8]; [34]
  CC50: > 100 µM
[8]; read-out: TGI
  TGI: > 100 µM
[8]; read-out: pGI50 (converted)
  GI50: > 100 µM
[8]; [35]
  CC50: > 100 µM
[8]; read-out: pTGI (converted)
  TGI: > 100 µM
[9]
  growth at 1000 µM: -53%
[10]; read-out: GI50
  GI50: 5.68 µM
[10]; [34]
  CC50: > 100 µM
[10]; read-out: TGI
  TGI: > 100 µM
[10]; read-out: pGI50 (converted)
  GI50: 5.62 µM
[10]; [35]
  CC50: > 100 µM
[10]; read-out: pTGI (converted)
  TGI: > 100 µM
[11]
  growth at 1 µM: 92%
[12]
  growth at 1000 µM: 7%
[13]
  growth at 100 µM: 23%
[14]; read-out: GI50
  GI50: 10.3 µM
[14]; read-out: LC50
  LC50 (concentration killing 50% of cells): > 100 µM
[14]; read-out: TGI
  TGI: > 100 µM
[14]; read-out: pGI50 (converted)
  GI50: 10.2 µM
[14]; read-out: pLC50 (converted)
  LC50 (concentration killing 50% of cells): > 100 µM
[14]; read-out: pTGI (converted)
  TGI: > 100 µM
[15]
  growth at 1 µM: 90%
[16]
  growth at 1000 µM: -30%
[17]
  growth at 100 µM: 20%
[18]
  growth at 0.1 µM: 102%
[19]
  growth at 1000 µM: 42%
[20]; read-out: GI50
  GI50: 3.96 µM
[20]; [34]
  CC50: > 100 µM
[20]; read-out: TGI
  TGI: 41.3 µM
[20]; read-out: pGI50 (converted)
  GI50: 3.98 µM
[20]; [35]
  CC50: > 100 µM
[20]; read-out: pTGI (converted)
  TGI: 41.7 µM
[21]
  growth at 100 µM: 72%
[22]
  growth at 0.1 µM: 101%
[23]
  growth at 100 µM: 32%
[24]
  growth at 1 µM: 103%
[25]
  growth at 10 µM: 99%
[26]; read-out: GI50
  GI50: > 100 µM
[26]; [34]
  CC50: > 100 µM
[26]; read-out: TGI
  TGI: > 100 µM
[26]; read-out: pGI50 (converted)
  GI50: > 100 µM
[26]; [35]
  CC50: > 100 µM
[26]; read-out: pTGI (converted)
  TGI: > 100 µM
[27]
  growth at 1 µM: 91%
[28]; read-out: GI50
  GI50: 3.95 µM
[28]; [34]
  CC50: > 100 µM
[28]; read-out: TGI
  TGI: 20.9 µM
[28]; read-out: pGI50 (converted)
  GI50: 3.98 µM
[28]; [35]
  CC50: > 100 µM
[28]; read-out: pTGI (converted)
  TGI: 20.9 µM
[29]
  growth at 0.1 µM: 96%
[30]; read-out: GI50
  GI50: 5.46 µM
[30]; [34]
  CC50: > 100 µM
[30]; read-out: TGI
  TGI: > 100 µM
[30]; read-out: pGI50 (converted)
  GI50: 5.5 µM
[30]; [35]
  CC50: > 100 µM
[30]; read-out: pTGI (converted)
  TGI: > 100 µM
[31]
  growth at 10 µM: 103%
[32]
  growth at 1000 µM: -2%
[33]
  growth at 10 µM: 94%

## CNC(=O)OC[C@H]1O[C@@H](n2cnc3c(NC(=O)Nc4ccccc4)ncnc32)[C@H](O[Si](C)(C)C(C)(C)C)[C@@H]1O[Si](C)(C)C(C)(C)C
[2]
  growth at 10 µM: 66.7%
[3]
  growth at 10 µM: 94.2%
[6]
  growth at 10 µM: 107%
[25]
  growth at 10 µM: 106%
[31]
  growth at 10 µM: 97.1%
[33]
  growth at 10 µM: 110%
